According to patent US20100226597A1, “BORTEZOMIB AND PROCESS FOR PRODUCING SAME” (DR. REDDY'S LABORATORIES LIMITED, priority 2007, published 2010):
Entries after “also recorded” stand apart in the source; their conditions may differ.

How the values were obtained:
[1] = Stability study of Bortezomib in the exemplary storage system of the invention (two polybags with external desiccant), purity by HPLC; conditions: for Initial purity: % area by HPLC
Description: Two different samples of Bortezomib were stored at a storage condition of 2-8° C. and 25° C., 60% relative humidity (RH) in a storage system (packed in one Polybags having a thickness about 0.10 mm followed by repacking in another polybag having thickness of about 0.10 mm and containing external desiccant). A small quantity was taken from each sample after 15 days, 1 month (30th day), 2 months (60th day) and 3 months (90th day) and the purity was checked by HPLC and compared to the original HPLC chromatogram of each sample (before starting the storage period). The chemical purity of each sample was obtained as % area by the HPLC chromatogram and compared to the initial purity value (before starting the storage period).
(§1) HPLC measurements of Bortezomib samples for chemical purity were performed using Waters system, equipped with Waters symmetry shield RP-18, 250X4.6 mm ID, 5 μm, particle size and a UV detector operated on 270 nm. Analyses were performed using the following mobile phase, at flow rate of 1.0 ml/minute, run time 55 minutes. Mobile phase A: Mix 700 ml water, 300 ml Acetonitrile and 1 ml formic acid, filter and degas. Mobile phase B: Mix 800 ml Acetonitrile, 200 ml water and 1 ml formic acid, filter and degas. Elution: Gradient program

[2] = Stability study of Bortezomib stored under general storage conditions (sealed polymeric bag, 25° C. and 60% RH), purity by HPLC; assay type: physicochemical
Description: as §1

[3] = Stability study of aqueous solution of Bortezomib in basic medium (pH ~10.5), purity by HPLC
Description: A small quantity was taken from solution after 1 hours, 2 hours and 3 hours and the purity was checked by HPLC and compared to the original HPLC chromatogram of initial sample (immediately after adjusting the pH). The purity of each sample was obtained as % area by the HPLC chromatogram and compared to the initial purity value.
as §1

[4] = stored at 2-8° C. in packaging of the invention, sample from methanol/water (Form A)
[5] = stored at 25° C. and 60% RH in packaging of the invention, sample from ethylacetate
[6] = 7th day, general storage conditions
[7] = 15th day, general storage conditions
[8] = 30th day, general storage conditions
[9] = initial, general storage conditions
[10] = after 1 hour, aqueous solution, pH ~10.5, 25 to 35° C.
[11] = after 2 hours, aqueous solution, pH ~10.5, 25 to 35° C.
[12] = after 3 hours, aqueous solution, pH ~10.5, 25 to 35° C.
[13] = initial, aqueous solution, pH ~10.5, 25 to 35° C.

Purity on 15th day [1, 4]: 99.59%
Purity on 15th day [1, 5]: 99.56%
Purity on 30th day [1, 4]: 99.59%
Purity on 30th day [1, 5]: 99.60%
Purity on 60th day [1, 4]: 99.65%
Purity on 60th day [1, 5]: 99.63%
Purity on 90th day [1, 4]: 99.66%
Purity on 90th day [1, 5]: 99.54%
Initial purity [1, 4]: 99.60%
Initial purity [1, 5]: 99.58%
Impurity-a content on 7th day [2, 6]: 0.06%
Impurity-b (RR and SS diastereomers) content on 7th day [2, 6]: 0.33%
Bortezomib purity by HPLC, Purity on 7th day ([2]; 7th day, general storage conditions, sample from ethylacetate): 99.34%
Impurity-a content on 15th day [2, 7]: 0.08%
Impurity-b (RR and SS diastereomers) content on 15th day [2, 7]: 0.35%
Bortezomib purity by HPLC, Purity on 15th day ([2]; 15th day, general storage conditions, sample from ethylacetate): 98.92%
Impurity-a content on 30th day [2, 8]: 0.18%
Impurity-b (RR and SS diastereomers) content on 30th day [2, 8]: 0.39%
Bortezomib purity by HPLC, Purity on 30th day ([2]; 30th day, general storage conditions, sample from ethylacetate): 97.22%
Impurity-a content, Initial [2, 9]: 0.06%
Impurity-b (RR and SS diastereomers) content, Initial [2, 9]: 0.36%
Bortezomib purity by HPLC, Initial purity ([2]; initial, general storage conditions, sample from ethylacetate): 99.49%
Chemical Purity by HPLC, After 1 hour [3, 10]: 98.24%
Impurity-a content, After 1 hour [3, 10]: 0.8924%
Impurity-b (RR and SS diastereomers) content, After 1 hour [3, 10]: 0.4005%
Chemical Purity by HPLC, After 2 hour [3, 11]: 98.01%
Impurity-a content, After 2 hour [3, 11]: 0.9587%
Impurity-b (RR and SS diastereomers) content, After 2 hour [3, 11]: 0.4746%
Chemical Purity by HPLC, After 3 hours [3, 12]: 97.77%
Impurity-a content, After 3 hours [3, 12]: 1.0229%
Impurity-b (RR and SS diastereomers) content, After 3 hours [3, 12]: 0.5418%
Chemical Purity by HPLC, Initial ([3]; initial (immediately after adjusting the pH), aqueous solution, pH ~10.5 (2N NaOH), 25 to 35° C.): 98.61%
Impurity-a content, Initial [3, 13]: 0.7899%
Impurity-b (RR and SS diastereomers) content, Initial [3, 13]: 0.2991%
SMILES: CC(C)C[C@H](NC(=O)[C@H](Cc1ccccc1)NC(=O)c1cnccn1)B(O)O [Bortezomib, [(1R)-3-methyl-1-[[(2S)-1-oxo-3-phenyl-2-[(pyrazinylcarbonyl)amino]propyl]amino]butyl]boronic acid]
Storage stability in words ([1]; packaging conditions of the invention, prolonged storage periods): can be stabilized while retaining its purity content over prolonged storage periods
Storage stability in words ([2]; sealed polymeric bag without desiccants, normal temperature): unstable; also recorded: substantial degradation of product
Stability in aqueous basic solution in words ([3]; aqueous solution maintained under stirring in a basic medium): decrease the purity; also recorded: purity of the compound decreased continually
